We go through 1 compound from patent publication US12558343B2, “Medical use of icaritin” (Lunan Pharmaceutical Group Corporation, priority 2020, dated 2026).

For the assay, the system named is hemorrhagic transformation model induced by aspirin combined with cerebral ischemia-reperfusion. The assay can be described thus: Hemorrhagic transformation after cerebral ischemia-reperfusion (MCAO) caused by aspirin, bleeding rate. The note with it: for Number of animals with cerebral hemorrhage: 24 h after MCAO; for Bleeding rate %: model group 85.7. It is filed as in vivo, ICR mice. The procedure: 5-week-old ICR male mice were fed to 6-week-old and divided into a control group, a model group, an icaritin-3 mg/kg group, an icaritin-6 mg/kg group, an icaritin-12 mg/kg group, and an icariin-12 mg/kg group according to body weight. From day 1 to day 3 after the grouping, the mice in each icaritin group were separately intragastrically administrated with 3, 6, and 12 mg/kg of icaritin and the mice in the icariin group was intragastrically administrated with 12 mg/kg of icariin once a day, and the mice in other groups were intragastrically administrated with a corresponding vehicle; and except the control group, the mice in other groups were intragastrically administrated with aspirin (100 mg/kg) or clopidogrel (15 mg/kg) once a day at a volume of 10 mL/kg.
On day 3, 10 min after the administration, the mice were anesthetized by intraperitoneal injection of 70 mg/kg of pentobarbital sodium and subjected to a cerebral ischemia-reperfusion (middle cerebral artery occlusion, MCAO) surgery with ischemia for 1 h and reperfusion for 23 h.
24 h after the surgery was an end point of the experiment.
Bleeding rate: the mice were anesthetized by intraperitoneal injection of 70 mg/kg of pentobarbital sodium, a brain tissue was taken out, cerebral hemorrhage was recorded and a bleeding rate of the mice in each group was calculated. Cerebral hemorrhage rate %=number of animals with cerebral hemorrhage/number of surviving animals in each group×100.

In the case of `COc1ccc(-c2oc3c(CC=C(C)C)c(O)cc(O)c3c(=O)c2O)cc1` [Icaritin], the “Number of animals with cerebral hemorrhage” value runs as follows: (3 mg/kg i.g. Day 1-3 with aspirin 100 mg/kg, of 8 animals) 3; (6 mg/kg i.g. Day 1-3 with aspirin 100 mg/kg, of 8 animals) 2; (12 mg/kg i.g. Day 1-3 with aspirin 100 mg/kg, of 9 (icaritin) or 8 (icariin) animals) 2. The Bleeding rate % by setting is: (3 mg/kg i.g. Day 1-3 with aspirin 100 mg/kg) 37.5%; (6 mg/kg i.g. Day 1-3 with aspirin 100 mg/kg) 25.0%; (12 mg/kg i.g. Day 1-3 with aspirin 100 mg/kg) 22.2%.
